Bounds are passed on as bounds.

Results on 50 molecules are retold here after patent publication US11040954B1, “CXCR3 receptor agonists” (RECEPTOS LLC, priority 2016, dated 2021).

This experiment deals with T1, CXCR3 (Homo sapiens, UniProt P49682).
T1 construct: host or cells: CHO-K1 (cAMP Hunter CHOK1 CXCR3 Gi cell line)
T1 sequence (P49682 1-368): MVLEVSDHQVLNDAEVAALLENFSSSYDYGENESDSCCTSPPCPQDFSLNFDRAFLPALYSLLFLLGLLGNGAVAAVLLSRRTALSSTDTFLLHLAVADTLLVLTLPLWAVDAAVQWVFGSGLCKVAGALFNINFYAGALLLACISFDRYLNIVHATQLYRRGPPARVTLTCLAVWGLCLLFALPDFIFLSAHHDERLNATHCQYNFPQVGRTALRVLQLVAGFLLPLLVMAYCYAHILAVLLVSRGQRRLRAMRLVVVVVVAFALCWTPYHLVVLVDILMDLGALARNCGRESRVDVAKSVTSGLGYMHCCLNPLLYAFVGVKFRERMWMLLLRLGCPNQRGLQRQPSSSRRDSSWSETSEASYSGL
Briefly: CXCR3 cAMP agonist assay (cAMP Hunter CHOK1 CXCR3 Gi cell line, forskolin-stimulated, HitHunter cAMP detection). It is filed as cell-based. To be noted: cAMP Hunter CHOK1 CXCR3 Gi cells, 20 μM forskolin, 30 minutes; read-out: Activity (CXCR3 cAMP agonist assay compound EC50). On the procedure:
The cAMP Hunter™ CHOK1 CXCR3 Gi cell line was purchased from DiscoveRx. Cells were seeded into a 96-well white assay plate at 50,000 cells/well/94 μl assay buffer (Hank's Buffered Saline Solution, 10 mM HEPES, 0.1% fatty acid-free BSA, pH 7.4) and immediately assayed in suspension. Forskolin was added to 20 μM (5 μl of 400 μM stock) simultaneously with a 12-point dose response curve of compound at 0-10 μM (1 μl of 100× stock in 100% DMSO), and cells were incubated for 30 minutes. A cAMP standard curve is run as an assay control. A CXCL11 dose response was included to determine maximum efficacy. Direct detection of cAMP was carried out using the DiscoveRx HitHunter cAMP kit according to manufacturer's instructions, and luminescence was read using a SpectraMax M5 plate reader.
Turning to `Cc1cc(NC(=O)[C@H](CCCNC(=N)N)NC(=O)[C@@H]2Cc3ccccc3CN2C(=O)CCC(=O)c2ccccc2)ccc1Cl` [Compound 1-32], the concentration for a half-maximal effect (EC50) was under 0.05 µM.

With `Cc1ccc(NC(=O)[C@H](CCCNC(=N)N)NC(=O)[C@@H]2Cc3ccccc3CN2C(=O)CCC(=O)c2ccccc2)cc1C` [Compound 1-33], the concentration giving a half-maximal response (EC50) was under 0.05 µM.

For the molecule `Cc1cc(NC(=O)[C@H](CCCCN)NC(=O)[C@@H]2Cc3ccccc3CN2C(=O)CCC(=O)c2ccccc2)cnc1C` [Compound 1-34], the concentration for a half-maximal effect (EC50) is under 0.05 µM.

Regarding `COc1ccccc1NC(=O)[C@H](CCN)NC(=O)[C@@H]1Cc2ccccc2CN1C(=O)CCC(=O)c1ccccc1` [Compound 1-35], the EC50 lay within 0.25 to 0.5 µM.

Regarding `COc1cc(C)c(Cl)cc1NC(=O)[C@H](CCN)NC(=O)[C@@H]1Cc2ccccc2CN1C(=O)CCC(=O)c1ccccc1` [Compound 1-36], the concentration for a half-maximal effect (EC50) is under 0.05 µM.

For the molecule `COc1cc(C)ccc1NC(=O)[C@H](CCN)NC(=O)[C@@H]1Cc2ccccc2CN1C(=O)CCC(=O)c1ccccc1` [Compound 1-37], the half-maximal effective concentration (EC50) was in the range of 0.05 to 0.25 µM.

In the case of `COc1ccc(C)cc1NC(=O)[C@H](CCN)NC(=O)[C@@H]1Cc2ccccc2CN1C(=O)CCC(=O)c1ccccc1` [Compound 1-38], the concentration giving a half-maximal response (EC50) is under 0.05 µM.

As to `COc1cc2c(cc1NC(=O)[C@H](CCN)NC(=O)[C@@H]1Cc3ccccc3CN1C(=O)CCC(=O)c1ccccc1)CCC2` [Compound 1-39], the EC50 is under 0.05 µM.

As to `NCC[C@H](NC(=O)[C@@H]1Cc2ccccc2CN1C(=O)CCC(=O)c1ccccc1)C(=O)Nc1ccc(Cl)c(C(F)(F)F)c1` [Compound 2-4], the concentration for a half-maximal effect (EC50) was in the range of 0.05 to 0.25 µM.

Regarding `NCC[C@H](NC(=O)[C@@H]1Cc2ccccc2CN1C(=O)CCC(=O)c1ccccc1)C(=O)Nc1cccc(C(F)(F)F)c1` [Compound 2-6], the EC50 was in the range of 0.05 to 0.25 µM.

Take `NCC[C@H](NC(=O)[C@@H]1Cc2ccccc2CN1C(=O)CCC(=O)c1ccccc1)C(=O)Nc1ccc(F)c(F)c1` [Compound 2-8]: the EC50 was over 0.5 µM.

On to `NCC[C@H](NC(=O)[C@@H]1Cc2ccccc2CN1C(=O)CCC(=O)c1ccccc1)C(=O)Nc1ccc(Cl)cc1F` [Compound 2-9], for which the EC50 fell in the range of 0.05 to 0.25 µM.

Regarding `Cc1cc(Cl)ccc1NC(=O)[C@H](CCN)NC(=O)[C@@H]1Cc2ccccc2CN1C(=O)CCC(=O)c1ccccc1` [Compound 2-10], the EC50 was 0.25 to 0.5 µM.

As to `NCC[C@H](NC(=O)[C@@H]1Cc2ccccc2CN1C(=O)CCC(=O)c1ccccc1)C(=O)Nc1ccc(C(F)(F)F)c(F)c1` [Compound 2-11], the EC50 lay within 0.25 to 0.5 µM.

Consider `NCC[C@H](NC(=O)[C@@H]1Cc2ccccc2CN1C(=O)CCC(=O)c1ccccc1)C(=O)Nc1ccc(Cl)c(F)c1` [Compound 2-12], for which the EC50 was 0.25 to 0.5 µM.

Turning to `NCC[C@H](NC(=O)[C@@H]1Cc2ccccc2CN1C(=O)CCC(=O)c1ccccc1)C(=O)Nc1ccc(C(F)(F)F)c(Cl)c1` [Compound 2-13], the 50% effective concentration (EC50) is over 0.5 µM.

In the case of `NCC[C@H](NC(=O)[C@@H]1Cc2ccccc2CN1C(=O)CCC(=O)c1ccccc1)C(=O)Nc1ccc(F)c(C(F)(F)F)c1` [Compound 2-14], the EC50 was under 0.05 µM.

On to `Cc1ccc(NC(=O)[C@H](CCN)NC(=O)[C@@H]2Cc3ccccc3CN2C(=O)CCC(=O)c2ccccc2)cc1Cl` [Compound 2-16], for which the EC50 is under 0.05 µM.

As for `NCC[C@H](NC(=O)[C@@H]1Cc2ccccc2CN1C(=O)CCC(=O)c1ccccc1)C(=O)Nc1cc(Cl)cc(Cl)c1` [Compound 2-17], the half-maximal effective concentration (EC50) was in the range of 0.05 to 0.25 µM.

`NCC[C@H](NC(=O)[C@@H]1Cc2ccccc2CN1C(=O)CCC(=O)c1ccccc1)C(=O)Nc1cc(Cl)c(Cl)cc1F` [Compound 2-20]: the EC50 is 0.05 to 0.25 µM.

`COc1cc(Cl)c(C)cc1NC(=O)[C@H](CCN)NC(=O)[C@@H]1Cc2ccccc2CN1C(=O)CCC(=O)c1ccccc1` [Compound 2-25]: the EC50 is under 0.05 µM.

For the molecule `Cc1cc(NC(=O)[C@H](CCN)NC(=O)[C@@H]2Cc3ccccc3CN2C(=O)CCC(=O)c2ccccc2)ccc1C(F)(F)F` [Compound 2-27], the EC50 was 0.05 to 0.25 µM.

For the molecule `NCC[C@H](NC(=O)[C@@H]1Cc2ccccc2CN1C(=O)CCC(=O)c1ccccc1)C(=O)Nc1ccc2ccccc2c1` [Compound 2-28], the half-maximal effective concentration (EC50) is under 0.05 µM.

As to `NCC[C@H](NC(=O)[C@@H]1Cc2ccccc2CN1C(=O)CCC(=O)c1ccccc1)C(=O)Nc1cccc(-c2ccccc2)c1` [Compound 2-29], the EC50 is 0.25 to 0.5 µM.

As for `CCc1cc(Cl)c(Cl)cc1NC(=O)[C@H](CCN)NC(=O)[C@@H]1Cc2ccccc2CN1C(=O)CCC(=O)c1ccccc1` [Compound 2-30], the half-maximal effective concentration (EC50) was 0.05 to 0.25 µM.

On to `Cc1ccc(NC(=O)[C@H](CCN)NC(=O)[C@@H]2Cc3ccccc3CN2C(=O)CCC(=O)c2ccccc2)c(F)c1` [Compound 2-31], for which the EC50 was in the range of 0.05 to 0.25 µM.

For the molecule `Cc1cccc(NC(=O)[C@H](CCN)NC(=O)[C@@H]2Cc3ccccc3CN2C(=O)CCC(=O)c2ccccc2)c1F` [Compound 2-32], the concentration for a half-maximal effect (EC50) was under 0.05 µM.

With `Cc1ccc(F)c(NC(=O)[C@H](CCN)NC(=O)[C@@H]2Cc3ccccc3CN2C(=O)CCC(=O)c2ccccc2)c1` [Compound 2-33], the EC50 was under 0.05 µM.

With `NCC[C@H](NC(=O)[C@@H]1Cc2ccccc2CN1C(=O)CCC(=O)c1ccccc1)C(=O)Nc1cccc(Cl)c1F` [Compound 2-34], the concentration giving a half-maximal response (EC50) is under 0.05 µM.

Consider `Cc1ccc(Cl)c(NC(=O)[C@H](CCN)NC(=O)[C@@H]2Cc3ccccc3CN2C(=O)CCC(=O)c2ccccc2)c1` [Compound 2-35], for which the half-maximal effective concentration (EC50) fell in the range of 0.05 to 0.25 µM.

For the molecule `Cc1ccc(NC(=O)[C@H](CCN)NC(=O)[C@@H]2Cc3ccccc3CN2C(=O)CCC(=O)c2ccccc2)c(Cl)c1` [Compound 2-36], the EC50 lay in the range of 0.25 to 0.5 µM.

Take `NCC[C@H](NC(=O)[C@@H]1Cc2ccccc2CN1C(=O)CCC(=O)c1ccccc1)C(=O)Nc1cc(Cl)ccc1F` [Compound 2-37]: the EC50 lay within 0.05 to 0.25 µM.

`Cc1cc(NC(=O)[C@H](CCN)NC(=O)[C@@H]2Cc3ccccc3CN2C(=O)CCC(=O)c2ccccc2)c(I)cc1Cl` [Compound 2-38]: the EC50 was under 0.05 µM.

Turning to `Cc1cc(NC(=O)[C@H](CCN)NC(=O)[C@@H]2Cc3ccccc3CN2C(=O)CCC(=O)c2ccccc2)cc(C)c1Cl` [Compound 2-39], the concentration giving a half-maximal response (EC50) was under 0.05 µM.

Turning to `Cc1cc(NC(=O)[C@H](CCN)NC(=O)[C@@H]2Cc3ccccc3CN2C(=O)CCC(=O)c2ccccc2)cc(Br)c1Cl` [Compound 2-40], the EC50 was under 0.05 µM.

As for `CCc1cc(Cl)c(C)cc1NC(=O)[C@H](CCN)NC(=O)[C@@H]1Cc2ccccc2CN1C(=O)CCC(=O)c1ccccc1` [Compound 2-41], the 50% effective concentration (EC50) lay in the range of 0.05 to 0.25 µM.

As for `NCC[C@H](NC(=O)[C@@H]1Cc2ccccc2CN1C(=O)CCC(=O)c1ccccc1)C(=O)Nc1ccc2ccncc2c1` [Compound 2-42], the half-maximal effective concentration (EC50) is over 0.5 µM.

For `NCC[C@H](NC(=O)[C@@H]1Cc2ccccc2CN1C(=O)CCC(=O)c1ccccc1)C(=O)Nc1ccc2ncccc2c1` [Compound 2-43], the concentration giving a half-maximal response (EC50) lay in the range of 0.05 to 0.25 µM.

Take `NCC[C@H](NC(=O)[C@@H]1Cc2ccccc2CN1C(=O)CCC(=O)c1ccccc1)C(=O)Nc1cnc2ccccc2c1` [Compound 2-44]: the concentration giving a half-maximal response (EC50) is under 0.05 µM.

For the molecule `NCC[C@H](NC(=O)[C@@H]1Cc2ccccc2CN1C(=O)CCC(=O)c1ccccc1)C(=O)Nc1ccc2cccnc2c1` [Compound 2-45], the EC50 fell in the range of 0.25 to 0.5 µM.

As for `NCC[C@H](NC(=O)[C@@H]1Cc2ccccc2CN1C(=O)CCC(=O)c1ccccc1)C(=O)Nc1ccc2c(c1)CCCC2` [Compound 2-46], the EC50 is under 0.05 µM.

For `CCc1c(NC(=O)[C@H](CCN)NC(=O)[C@@H]2Cc3ccccc3CN2C(=O)CCC(=O)c2ccccc2)ccc(Cl)c1Cl` [Compound 2-48], the EC50 is 0.05 to 0.25 µM.

`Cc1cccc(NC(=O)[C@H](CCN)NC(=O)[C@@H]2Cc3ccccc3CN2C(=O)CCC(=O)c2ccccc2)c1O` [Compound 2-50]: the half-maximal effective concentration (EC50) was in the range of 0.25 to 0.5 µM.

With `COc1c(C)cccc1NC(=O)[C@H](CCN)NC(=O)[C@@H]1Cc2ccccc2CN1C(=O)CCC(=O)c1ccccc1` [Compound 2-51], the 50% effective concentration (EC50) was 0.05 to 0.25 µM.

Turning to `NCC[C@H](NC(=O)[C@@H]1Cc2ccccc2CN1C(=O)CCC(=O)c1ccccc1)C(=O)Nc1ccc(Cl)cc1Cl` [Compound 2-52], the EC50 fell in the range of 0.05 to 0.25 µM.

With `CCc1c(C)cccc1NC(=O)[C@H](CCN)NC(=O)[C@@H]1Cc2ccccc2CN1C(=O)CCC(=O)c1ccccc1` [Compound 2-53], the concentration for a half-maximal effect (EC50) was in the range of 0.05 to 0.25 µM.

In the case of `CCc1c(NC(=O)[C@H](CCN)NC(=O)[C@@H]2Cc3ccccc3CN2C(=O)CCC(=O)c2ccccc2)ccc(Cl)c1C` [Compound 2-54], the concentration giving a half-maximal response (EC50) was over 0.5 µM.

For the molecule `CCc1ccc(NC(=O)[C@H](CCN)NC(=O)[C@@H]2Cc3ccccc3CN2C(=O)CCC(=O)c2ccccc2)c(F)c1` [Compound 2-56], the EC50 was 0.25 to 0.5 µM.

As to `COc1c(NC(=O)[C@H](CCN)NC(=O)[C@@H]2Cc3ccccc3CN2C(=O)CCC(=O)c2ccccc2)ccc2c1CCC2` [Compound 2-58], the EC50 lay in the range of 0.05 to 0.25 µM.

In the case of `COc1cc2c(cc1NC(=O)[C@H](CCN)NC(=O)[C@@H]1Cc3ccccc3CN1C(=O)CCC(=O)c1ccccc1)CCCC2` [Compound 2-59], the concentration for a half-maximal effect (EC50) was in the range of 0.25 to 0.5 µM.
